Entries after “also recorded” stand apart in the source; their conditions may differ.
Assays:
[1] = Tissue distribution of ketamine and metabolites (plasma and brain levels)
Experimental: Mice were euthanized by a 30-sec exposure to 3% isoflurane and decapitated at 10, 30, 60, 240 or 480 minutes following drug administration. Trunk blood was collected in EDTA-containing tubes and centrifuged at 8000 rpm for 6 min (4° C.). Plasma was collected and stored at −80° C. until analysis. Whole brains were simultaneously collected, rinsed with phosphate-buffered saline, immediately frozen in dry ice and stored at −80° C. until analysis.
The concentrations of ketamine and its metabolites in plasma and brain tissue were determined by achiral liquid chromatography-tandem mass spectrometry. For plasma samples, the calibration standards for (R,S)-ketamine, (R,S)-norketamine, (2R,6R;2S,6S)-HNK and (R,S)-DHNK ranged from 10,000 ng/ml to 19 ng/ml. The quantification of (R,S)-ketamine, (R,S)-norketamine, (R,S)-DHNK, and the HNK stereoisomers was accomplished by calculating area ratios using D4-ketamine (10 μl of 10 μg/ml solution) as the internal standard. Whole brains were suspended in 990 μl of water:methanol (3:2, v/v), D4-ketamine (10 μl of 10 μg/ml) added and the resulting mixture homogenized on ice with a polytron homogenizer and centrifuged at 21,000×g for 30 min. The supernatant was collected and processed using 1 ml Oasis HLB solid phase extraction cartridges (Waters Corp., Waltham, Mass.). The cartridges were preconditioned with 1 ml of methanol, followed by 1 ml of water and then 1 ml ammonium acetate [10 mM, pH 9.5]. The supernatants were added to the cartridges, followed by 1 ml of water and the compounds were eluted with 1 ml of methanol. The eluent was transferred to an autosampler vial for analysis. QC standards for the analysis of (R,S)-ketamine, (R,S)-norketamine, (R,S)-DHNK and (2R,6R;2S,6S)-HNK ranged from 10,000 ng/ml to 19 ng/ml, and quantification was accomplished using D4-(R,S)-ketamine as the internal standard. QC standards were prepared daily by adding 10 μl of the appropriate standard solution and 10 μl of internal standard solution (100 ng/ml) to methanol.

[2] = system: male CD-1 mice; test: Forced-swim test (FST); assay type: in vivo; conditions: for antidepressant effect in the FST (immobility time): i.p.
Excerpt: (§1) Male CD-1 mice (8-10 weeks old, Charles River Laboratories, Mass., USA) were housed in groups of four-five per cage with a constant 12-hour light/dark cycle (lights on/off at 07:00/19:00). Food and water were available ad libitum. Mice acclimatized to the new environment for seven days prior to the start of the experiments. For the whole-cell NMDA current electrophysiological recordings, male Sprague-Dawley rats (housed three per cage; Charles River, Wilmington, Mass.) were used. EPSC recording were done from rats at postnatal day 24-25. All experimental procedures were approved by the University of Maryland, Baltimore Animal Care and Use Committee and were conducted in full accordance with the National Institutes of Health Guide for the Care and Use of Laboratory Animals.
Mice were tested in the FST 1 hour and/or 24 hours post-injection. During the FST, mice were subjected to a 6-min swim session in clear Plexiglass cylinders (30 cm height×20 cm diameter) filled with 15 cm of water (23±1° C.). The FST was performed in normal light conditions (800 Lux). Sessions were recorded using a digital video-camera. Immobility time, defined as passive floating with no additional activity other than that necessary to keep the animal's head above water, was scored for the last 4 min of the 6-min test by a trained observer blind to the treatment.
All drugs were dissolved in 0.9% saline, and administered intraperitoneally (i.p.) in a volume of 7.5 ml/kg of body mass. Corticosterone (4-pregnen-11β, 21-diol-3, 20-dione 21-hemisuccinate; Steraloids, Newport, R.I., USA) was dissolved in tap water. For the electrophysiology recordings, test drugs were diluted in artificial cerebrospinal fluid (AC SF).

[3] = system: male CD-1 mice; test: Learned helplessness (LH); assay type: in vivo; conditions: single injection, test 24 hours after administration
Excerpt: as §1
The LH paradigm consisted of three different phases, i.e., inescapable shock training, LH screening, and the LH test. For the inescapable shock portion of the test (Day 1), the animals were placed in one side of two-chambered shuttle boxes (34 cm height×37 cm width×18 cm depth; Coulbourn Instruments, PA, USA), with the door between the chambers closed. Following a five-min adaptation period, 120 inescapable foot-shocks (0.45 mA, 15 sec duration, randomized average inter-shock interval of 45 sec) were delivered through the grid floor. During the screening session (Day 2), the mice were placed in one of the two chambers of the apparatus for 5 min. A shock (0.45 mA) was then delivered, and the door between the two chambers was raised simultaneously. Crossing over into the second chamber terminated the shock. […] A total of 30 screening trials of escapable shocks were presented to each mouse with an average of 30 sec delay between each trial. Mice that developed helplessness behavior (>5 escape failures during the last 10 screening shocks) were administered with the respective drug 24 hours following screening (Day 3). During the LH test phase (Day 4), the animals were placed in the shuttle boxes and, after a 5-min adaptation period, a 0.45 mA shock was delivered concomitantly with door opening for the first five trials, followed by a 2-sec delay for the next 40 trials. Crossing over to the second chamber terminated the shock. […] A total of 45 trials of escapable shock were presented to each mouse with 30 sec inter-trial intervals. The number of escape failures was recorded for each mouse.

[4] = system: mice; test: Open field test (locomotor activity); assay type: in vivo; conditions: 1 hour after i.p. drug, Hydrochloride
Experimental: Mice were placed into individual open-field arenas (50 cm length×50 cm width×38 cm height; San Diego Instruments, San Diego, Calif., USA) for a 60-min habituation period. Mice were then injected with the respective drug and assessed for locomotor activity for another 60 min. Distance travelled was analyzed using TopScan v2.0 (CleverSys, Inc, Reston, Va., USA).

[5] = system: Male C57BL/6J mice; test: Chronic social defeat stress and social interaction/avoidance test; assay type: in vivo; conditions: single i.p. injection, re-test 24 hours following treatment
Experimental: Male C57BL/6J mice underwent a 10-day chronic social defeat stress paradigm. Briefly, experimental mice were introduced to the home cage (43 cm length×11 cm width×20 cm height) of a resident aggressive retired CD-1 breeder, prescreened for aggressive behaviors, for 10 min. Following this physical attack phase, mice were transferred and housed in the opposite side of the resident's cage divided by a Plexiglas perforated divider, in order to maintain continuous sensory contact. This process was repeated for 10 days. Experimental mice were introduced to a novel aggressive CD-1 mouse each day. On day 11, test mice were screened for susceptibility in a social interaction/avoidance choice test. The social interaction apparatus consisted of a rectangular three-chambered box (mouse conditioned-place preference chamber; Stoelting Co., Wood Dale, Ill., USA), see FIG. 7b) comprised of two equal sized end-chambers and a smaller central chamber. The social interaction/avoidance choice test consisted of two 5-min phases. During the habituation phase, mice explored the empty apparatus. During the test phase, two small wire cages (Galaxy Cup, Spectrum Diversified Designs, Inc., Streetsboro, Ohio, USA), one containing a “stranger” CD-1 mouse and the other one empty, were placed in the far corners of each chamber. The time spent interacting (nose within close proximity of the cage) with the “stranger” mouse versus the empty cage was analysed using TopScan video tracking software (CleverSys, Reston, Va.). Locomotor activity (total distance moved over 5 min) and number of total crosses into and out of the central chamber were also measured. The social interaction ratio was calculated by dividing the time spent interacting with the “stranger” by the time spent with the empty cage. Mice having a social interaction ratio higher than 1.0 were considered resilient and mice with a social interaction ratio lower than 1.0 were considered susceptible. On day 13 resilient and susceptible mice received an i.p. injection of either saline, (R,S)-KET (20 mg/kg; chosen based upon dose previously effective in C57BL/6J mice^31), MK-801 (0.1 mg/kg) or (2R,6R)-HNK (20 mg/kg). Mice were re-tested for social interaction/avoidance on […] (24 hours following treatment).

[6] = system: mice; test: Quantitative EEG, cortical oscillation power; assay type: in vivo; conditions: NBQX before (2R,6R)-HNK
Experimental: EEG experiments were performed according to Raver et al., (Neuropsychopharmacology, 38, 2338-2347 (2013)) with minor modifications. Mice were anesthetized with isoflurane and kept under anesthesia throughout the surgery. An F20-EET radio-telemetric transmitter (Data Sciences International, Minneapolis, Minn.) was implanted subcutaneously and its leads implanted over the dura above the frontal cortex (1.7 mm anterior to bregma) and the cerebellum (6.4 mm posterior to bregma). Animals recovered from surgery for 7 days before recordings.
Mice were singly housed and acclimated to the behavioral room for 24 hours prior to EEG recordings. EEGs were recorded using the Dataquest A.R.T. acquisition system (Data Sciences International) with frontal EEG recordings referenced to the cerebellum. Baseline EEG (10 min) recordings were followed by an i.p. injection of saline, ketamine (10 mg/kg) or (2R,6R)-HNK (10 mg/kg) and 40 min of post-injection recordings.
ECoGs were analyzed using custom-written MATLAB scripts (Version 2012a, Mathworks, Mass.) and the mtspecgramc routine in the Chronux Toolbox (http://chronux.org; Mitra and Bokil, 2008). Oscillation power in each bandwidth (δ=1-3 Hz; θ=4-7 Hz; α=8-12 Hz; β=13-29 Hz; γ=30-80 Hz) was computed in 10 min bins from spectrograms for each animal.

[7] = system: mice; test: Drug discrimination in ketamine-trained mice; assay type: in vivo; conditions: for ketamine-associated discriminative stimulus: mice trained to discriminate ketamine (10 mg/kg) from saline
Experimental: Mice were food restricted until they reached 85% of their initial body weight and were maintained at 85% throughout the duration of the experiment Animals were trained to lever press for food (20 mg sucrose pellets; TestDiet, St. Luis, Mo., USA) in standard two lever-operant conditioning chambers (Coulbourn Instruments, Whitehall, Pa., USA), under a fixed-ratio 5 of reinforcement (FR5) in daily 30-min sessions. When stable responding was succeeded over 3 consecutive sessions (average of 40 training sessions), mice were trained to discriminate ketamine (10 mg/kg) from saline (7.5 ml/kg) under a double alternation schedule (e.g., ketamine, ketamine, saline, saline). The subjects received either ketamine (10 mg/kg; i.p.) or saline (7.5 ml/kg) 15 minutes prior to the start of the 30-minute session. […] Drug discrimination test sessions were conducted when mice reached the following criteria: (1) first FR5 completed on the correct lever, and (2)≥85% correct lever responding over the entire session. During the test sessions mice were administered with saline (7.5 ml/kg), ketamine (10 mg/kg), phencyclidine (PCP; 3 mg/kg) or (2R,6R)-HNK (10 and 50 mg/kg). […] Recording of responses and pellet delivery were controlled and calculated by an automated computer system (Graphic State v3.1; Coulbourn Instruments, Whitehall, Pa., USA).

[8] = 24 hours post-injection (sustained)

With `NC1(c2ccccc2Cl)CCCCC1=O` (racemic) [norketamine, (R,S)-norketamine] the “brain levels following ketamine administration, female mice compared to males” value ([1]; brain) was “equivalent levels”.

With `Cl.[2H]C1([2H])CCCC(NC)(c2ccccc2Cl)C1=O` (centres unmarked) [6,6-dideuteroketamine, 2-(2-Chlorophenyl)-6,6-Dideutero-2-(Methylamino)Cyclohexanone Hydrochloride] the “antidepressant effect in the FST (immobility time)” value (from here on “antidepressant effect in the FST”) [2, 8] was “did not induce antidepressant actions”, the “antidepressant-like effect in learned helplessness (escape failures)” value [3] was “did not induce antidepressant actions” and the “locomotor activity in the open-field test” value [4] was “did not change or NMDA-mediated hyperlocomotion”. For the same compound, the “locomotor activity in the open-field test” value ([4]; listed as (R,S)-6,6-dideuteroketamine) was “equally potent in inducing a hyper-locomotor response” and the “levels of ketamine in the brain” value ([1]; 6,6-dideuteroketamine compared to ketamine) was “without changes to the levels of ketamine in the brain”.

For `C[C@]12N[C@H](Cc3ccccc31)c1ccccc12` [MK-801], the “antidepressant effect in the FST” value ([2]; 1 hour post-injection (acute)) was “antidepressant responses of both ketamine and MK-801 observed acutely”, the “antidepressant effect in the FST” value [2, 8] was “does not exert sustained (24-hour) antidepressant-like effects” and the “reversal of social interaction deficits / social avoidance induced by chronic social defeat stress” value [5] was “does not exert sustained (24-hour) antidepressant-like effects in the FST, or reverse social interaction deficits”.

For `NS(=O)(=O)c1cccc2c1c([N+](=O)[O-])cc1[nH]c(=O)c(=O)[nH]c12` [NBQX, 2,3-dihydroxy-6-nitro-7-sulfamoyl-benzo[f]quinoxaline-2,3-dione], the “effect of NBQX pre-treatment on antidepressant-like actions in the FST” value ([2]; NBQX 10 minutes prior to (R,S)-ketamine or (2R,6R)-HNK, FST 1 hour or 24 hours later) was “prevented their antidepressant-like actions; also recorded: prevented both the 1- and 24-hour antidepressant effects of (2R,6R)-HNK”, the “effect of NBQX given before the 24-hour FST on antidepressant effects” value ([2]; NBQX 30 min prior to the 24-hour FST (23.5 hours after ketamine or (2R,6R)-HNK)) was “prevented the antidepressant actions of both ketamine and (2R,6R)-HNK; also recorded: prevented the antidepressant effects of both (R,S)-KET and (2R,6R)-HNK” and the “effect of NBQX pre-treatment on (2R,6R)-HNK-induced increases in gamma oscillations” value [6] was “prevented (2R,6R)-HNK-induced increases in gamma power; also recorded: prevented (2R,6R)-HNK-induced increases of gamma oscillations”. For the same compound, the “effect of NBQX pre-treatment on locomotor activity and alpha, beta, delta, theta oscillations” value [6] was “did not change”.

With `CNCCCN1c2ccccc2CCc2ccccc21` [desipramine] the “antidepressant effect in the FST” value ([2]; 1- and 24-hours post-injection, times not separated) was “only decreased immobility time 1 hour post-injection”.

In the case of `c1ccc(C2(N3CCCCC3)CCCCC2)cc1` [phencyclidine, reference compound], the “response rate of overall lever pressing per sec” value ([7]; drug discrimination paradigm) is reported as “not changed”, the ketamine-associated discriminative stimulus [7] is reported as “did” and the ketamine-associated discriminative stimulus ([7]; listed as PCP) is reported as “produced ketamine-like discriminative properties”.
